Here are results for three compounds from patent US5162336A, “Tetrahydro-pyrido-indoles as cholecystokinin and gastrin antagonists” (Rhone-Poulenc Rorer Pharmaceuticals Inc., priority 1990, dated 1992).

This test has as its target T1, CCK-A receptor (Rattus norvegicus, UniProt P30551).
T1 construct: from tissue; host or cells: pancreas membranes of Sprague-Dawley rat
T1 sequence (P30551 1-444): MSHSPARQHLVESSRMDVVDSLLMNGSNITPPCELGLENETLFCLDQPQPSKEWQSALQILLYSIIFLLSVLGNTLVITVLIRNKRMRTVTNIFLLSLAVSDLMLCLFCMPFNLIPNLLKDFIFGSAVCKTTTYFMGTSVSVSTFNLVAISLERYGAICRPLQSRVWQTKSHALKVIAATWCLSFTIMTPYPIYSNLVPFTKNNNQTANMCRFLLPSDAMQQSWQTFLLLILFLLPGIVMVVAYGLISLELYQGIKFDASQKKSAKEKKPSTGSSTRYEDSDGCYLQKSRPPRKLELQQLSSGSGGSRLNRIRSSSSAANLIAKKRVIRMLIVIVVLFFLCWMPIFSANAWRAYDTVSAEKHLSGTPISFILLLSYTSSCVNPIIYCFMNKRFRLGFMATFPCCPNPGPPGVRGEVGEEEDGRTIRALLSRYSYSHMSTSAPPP
As to the kind of experiment: CCK-A receptor binding assay (displacement of 3H-L-364,718 from rat pancreas membranes). Set-up: species or system Sprague-Dawley rat. Particulars: 3H-L-364,718 0.2 nM, 37° C., 30 min, read-out: In vitro Binding Data IC50 CCK. An outline of the steps: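 Rat pancreas membranes incubated 30 min at 37 °C with 0.2 nM 3H-L-364,718 in 50 mM Tris pH 7.7, 5 mM MgCl2, 5 mM DTT, 0.14 mg/ml bacitracin, 2 mg/ml BSA. Nonspecific binding defined by 300 nM unlabeled L-364,718; rapid filtration and scintillation counting, triplicates.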
The IC50 is the point on the concentration scale where inhibition reaches its midpoint. On to `CCCCCN(CCCCC)C(=O)[C@H]1Cc2c([nH]c3ccccc23)CN1C(=O)Nc1cccc(C)c1` [Example 13, (3R)-3-(N,N-dipentylcarbamoyl)-2-(3-methylphenylcarbamoyl)-1,2,3,4-tetrahydro-9H-pyrido[3,4-b]indole], for which the half-inhibitory concentration (IC50) stood at 10 µM. The value for `CC(C)C[C@H](NC(=O)[C@H]1Cc2c([nH]c3ccccc23)CN1C(=O)Nc1ccc(Cl)c(Cl)c1)C(=O)NCCC(=O)O` [Example 27] was 14 µM; that for `NC(=O)[C@H](CC(=O)O)NC(=O)[C@H]1Cc2c([nH]c3ccccc23)CN1` [Example 3, N-[(3R)-1,2,3,4-tetrahydro-9H-pyrido[3,4-b]-indole-3-carboxyl]-L-aspartic acid amide] was greater than 300 µM.
